Laboratory results published in patent US20250375417A1, “OREXIN RECEPTOR 2 (OX2R) AGONIST FOR USE IN NARCOLEPSY TYPE 1 (NT1)” (TAKEDA PHARMACEUTICAL COMPANY LIMITED, priority 2024, published 2025).

Legend:
participants with NT1 [1] = assay: Safety and tolerability (TEAEs), Phase 2 NT1 trial; assay type: in vivo, human
Excerpt: Standard safety endpoints (e,g., treatment […] adverse events (TEAEs), physical examination findings, vital signs, 12-lead ECG measures, clinical laboratory results) for early clinical investigation were included. Further, because cardiovascular effects have been noted in nonclinical models with Compound A and OX2R agonists in general, and these effects are thought to be on-target effects, close monitoring of cardiovascular parameters, including time-matched BP measurements before and after dosing to detect any changes and potential tolerance in BP after the administration of repeat doses to participants with NT1 were included. Ambulatory blood pressure monitoring (ABPM) was also obtained to assess BP in the outpatient setting in a rigorous manner.
In addition, because liver function test (LFT) elevation cases have been observed in another OX2R agonist with structural similarity, LFTs (ALT, AST, GGT, and total bilirubin) were closely monitored.
The following doses were studied: • Compound A Dose Regimen 1:0.5 mg twice daily approximately 3 hours apart. • Compound A Dose Regimen 2:2 mg twice daily approximately 3 hours apart. • Compound A Dose Regimen 3:2 mg followed by 5 mg approximately 3 hours apart. • Compound A Dose Regimen 4:7 mg once daily (QD). • Other products required for the study: Matching placebo.
Endpoints included change from baseline to Week 8 in mean sleep onset latency on the Maintenance of Wakefulness Test (SOL-MWT; primary endpoint), ESS total score, weekly cataplexy rate (WCR), and occurrence of treatment-emergent adverse events (TEAEs).

participants with NT1 [2] = assay: Daily sleep diaries (disturbing dreams), Phase 2 NT1 trial; assay type: in vivo, human
Excerpt: Polysomnography (PSG) was collected at baseline and after 27 and 54 days of treatment. Sleep was manually scored following AASM guidelines; sleep metrics were extracted then computed by whole night and by quarter-night. Continuous accelerometry (Empatica EmbracePlus watch) allowed assessment of sleep in a naturalistic manner at home. Daily sleep diaries were used to capture subjective reports. Mixed effects models were fit with treatment, quarter-night, visit, and their interactions as fixed effects and random intercepts per subject. A reference PSG dataset (Vilela M, et al. J Sleep Res 2024; e14216) from CHU Montpellier (49 clinical controls and 114 patients with NT1, all drug-free) was analyzed to establish DNS characteristics of NT1.
At baseline, participants reported disturbing dreams, which contribute to DNS, an average of 2.8 nights/week (no significant differences across cohorts) in response to “Did you have disturbing dreams, nightmares, or frightening dreams during the night?” These reductions potentially relate to improvements in REM regulation with Compound A.

participants with NT1 [3] = assay: Psychomotor vigilance test (PVT), sustained attention, Phase 2 NT1 trial; assay type: in vivo, human
Excerpt: The psychomotor vigilance test (PVT) is validated as a clinical outcome assessment of the ability to sustain attention. The PVT is a simple reaction performance task that aims to measure sustained attention with no learning effects over repeated administration. Differences between healthy controls and patients with narcolepsy have been found on PVT performance for reaction time, accuracy, and other measures. The PVT is sensitive to the effects of total sleep loss, partial sleep restriction, naps, and circadian variation in the healthy population. The duration of test is 10 minutes.
Outcomes of this study included a performance-based test of attention, the Psychomotor Vigilance Task (PVT; administered 1 and 7 hours post first dose, assessed at baseline and weeks 4 and 8) and two assessments of EDS: the Maintenance of Wakefulness Test (MWT; administered 2, 4, 6, and 8 hours post first dose, assessed over 4 sessions) and the Epworth Sleepiness Scale (ESS; using a 7-day recall period, assessed at baseline and weeks 2, 4, and 8). At baseline, associations between attention (as measured by number of PVT lapses), and objective (MWT) and subjective (ESS) measures of EDS were computed. For PVT and MWT, covariation in change throughout the day at end of study was investigated. The effect of different Compound A doses on wakefulness and attention were compared for each outcome. […]

participants with NT1 [4] = assay: Functional Impacts of Narcolepsy Instrument (FINI), Phase 2 NT1 trial; assay type: in vivo, human; conditions: range across Compound A doses
Excerpt: The functional impact of NT1 on subjects can be assessed by the FINI. The FINI is a fit-for-purpose 28-item instrument developed by the sponsor to ensure easy to interpret concepts that are meaningful to narcolepsy patients. The FINI measures the functional impacts of narcolepsy across 6 domains: Tiredness (items 1-7), Cognitive Functioning (items 8-12), Cataplexy (items 13-17), Social Activities (items 18-21), Everyday Activities (items 22-25), and Everyday Responsibilities (items 26-28). Each item asks about the impact that narcolepsy has had on their daily functioning during the past 7 days, and scored from 0-4, where 0 indicates the best health and 4 the worst. There is no total score; for each participant, an average score is calculated for each domain, if at least half the items in the domain have been answered:
Sum of responses in the domain/Number of completed items in the domain
The average domain score is then standardized to a 0-100 scale, where 0 indicates the best health and 100 the worst health. A decrease from baseline would thus indicate improved health:
Standardized score=average score/4×100
An analysis of exploratory data from the trial investigated the effect of Compound A on functioning and HRQoL in individuals with ICSD-3 confirmed NT1. Participants aged 18-70 years (Japan: 16-70), with an Epworth Sleepiness Scale (ESS) score>12, and ≥4 partial/complete episodes of cataplexy/week were eligible for inclusion. Participants were randomized to oral Compound A (0.5 mg twice 3 hours apart, 2 mg twice 3 hours apart, 2 mg then 5 mg 3 hours later, or 7 mg once-daily), or placebo. Exploratory endpoints included 3 domains (social activities, everyday activities, and everyday responsibilities) from the 6-domain Functional Impacts of Narcolepsy Instrument (FINI) in which each item uses 5-point Likert scale and higher standardized domain scores (0-100) indicate more severe impact; the 36-item short-form (SF-36); and the EuroQoL 5-Dimensions 5-Levels (EQ-5D-5L) questionnaire.

[5] = Clinical studies of Compound A: drug-induced liver injury; assay type: in vivo
Excerpt: Liver function test (LFTs) (alanine aminotransferase [ALT], aspartate aminotransferase [AST], γ-glutamyl transferase [GGT], and total bilirubin) were closely monitored in this study. Stopping criteria for individual participants and the overall study, based on abnormal LFTs were established.

[6] = Compound A-treated participants

CCS(=O)(=O)N[C@@H]1[C@H](Cc2cccc(-c3cc(F)cc(F)c3)c2F)N(C(=O)C(C)(C)O)CC1(F)F [Compound A, N-{(2S,3R)-4,4-difluoro-1-(2-hydroxy-2-methylpropanoyl)-2-[(2,3′,5′-trifluoro[1,1′-biphenyl]-3-yl)methyl]pyrrolidin-3-yl}ethanesulfonamide]
Adverse events of mild to moderate insomnia, participants (participants with NT1 [1]; [6]): 48% | Time to resolution of most insomnia adverse events (participants with NT1 [1]; [6]): ≤ 1 week | Most common TEAEs (participants with NT1 [1]; Phase 2): urinary urgency/frequency and insomnia | Hepatotoxicity or visual disturbances (participants with NT1 [1]; Phase 2, 8 weeks): No cases of hepatotoxicity or visual disturbances were reported | Tolerability (participants with NT1 [1]; Phase 2, 8 weeks): generally well tolerated | Occurrence of TEAEs (participants with NT1 [1]; all Compound A doses (70/90 patients), 8 weeks): 77.8% | Treatment-related serious TEAEs or discontinuations due to TEAEs (participants with NT1 [1]; during the study): No treatment-related serious TEAEs or discontinuations due to TEAEs occurred | Rate of disturbing dreams, average estimated change from baseline (participants with NT1 [2]; across all treated cohorts and weeks): −1.5 nights/week | Rate of disturbing dreams, range of estimated change from baseline (participants with NT1 [2]; range across all treated cohorts and weeks): −1.8 to −0.8 nights/week | PVT lapses, least squares mean differences from placebo (participants with NT1 [3]; all Compound A doses, 1 hour and 7 hours post-first dose (p<0.05)): significant | Attention (PVT lapses) (participants with NT1 [3]; week 8, all doses (all p<0.05)): improved attention across all doses | FINI-Everyday Activities, LS mean change from baseline to Week 8 (participants with NT1 [4]): −41.4 to −54.5 | FINI-Everyday Responsibilities, LS mean change from baseline to Week 8 (participants with NT1 [4]): −35.0 to −53.7 | FINI-Social Activities, LS mean change from baseline to Week 8 (participants with NT1 [4]): −29.9 to −43.1 | Drug-induced liver injury [5]: No cases of drug-induced liver injury have been reported
